Results on 87 compounds are retold here after a melting point compilation (Tetko et al.; mined from patent text by program, amines drawn as free bases though some values may be those of a salt).

For orientation: melting point means the temperature, or range, at which the solid turns liquid.

A value given as a limit tells only on which side of the number the result lay.

In turn, `COC(=O)c1cc(S(C)(=O)=O)c(S(F)(F)(F)(F)F)cc1C` returned a melting point of 127 °C.
`N#Cc1ccc(N2C(=O)[C@@H]3[C@H](O)CCN3C2=O)c2ccccc12` (relative stereo) displayed a melting point of 224 to 225 °C.
As for `O=C(O)c1cc(-n2c(-c3ccccc3)cc3c4ccccc4ccc32)ccc1O`, the melting point worked out at 242 °C.
Then `CC1(C)OC(=O)C(OC2CCc3ccccc32)=C1c1ccc(S(C)(=O)=O)cc1` (configuration not stated), with 128 to 129 °C.
Then `O=C(NCc1ccc(Cl)cc1)c1cn2c3c(cc(I)cc3c1=O)CC2CO` (configuration not stated), with 222 to 223 °C; and `CC1CCN(CCCCC(=O)c2ccc3c(c2)Cc2cc(C(=O)CCCCN4CCC(C)CC4)ccc2-3)CC1`, with 143 to 144 °C.
For `CCN(CC)CCOc1ccc(Nc2ncc3c(n2)N(C)C(=O)N(c2c(Cl)cc(Cl)cc2Cl)C3)cc1`, the melting point was 142 °C.
Compound `CN1CCC(=C2c3ccccc3C=Cc3ccc(C#N)cc32)CC1` came in with a melting point of 141 to 146 °C.
`O=C(O)c1ccc(C(=O)O)c(OC(F)(F)C(F)OC(F)(F)C(F)(OC(F)(F)C(F)(F)C(F)(F)F)C(F)(F)F)c1` (configuration not stated) came in with a melting point of 236 to 239 °C.
Then `CC(C)N(CCN1C(=O)/C(=N/NC(N)=O)c2cc(F)ccc21)C(C)C`, with 158 to 160 °C; and `O=c1nc(N2CCN(Cc3ccccc3)CC2)sc2c([N+](=O)[O-])cc(C(F)(F)F)cc12`, with 161 to 163 °C.
Then `CC#CCn1nnc2cc3c(=O)n(C(C)Cn4ncnn4)nnc3cc2c1=O` (configuration not stated), with 132 to 134 °C.
Then `Nc1cccc(S(=O)(=O)Nc2ccccc2NNC=O)c1`, with 120 °C.
`CCOC(=O)CN(Cc1cc(F)ccc1[N+](=O)[O-])C(=O)C(F)(F)F` had a melting point of 60 to 63 °C.
For `COc1cccc(OC)c1NC(=O)c1ccc2nc(N[C@@H]3CCc4ccccc43)ccc2c1`, the melting point amounted to 199 °C.
Then `Cc1ccc(S(=O)(=O)NC(=S)Nc2cnccc2N)cc1`, with 185 to 187 °C.
Compound `CC(=O)Nc1ccc(C=C2c3ccccc3CCc3ccccc32)cc1` gave a melting point of 135 °C.
The figure for `COC(=O)c1sc2c(c1N)c1ccccc1c(=O)n2-c1ccccc1C` is 236 to 237 °C.
`CNC(=O)/C(=N/OC)c1ccccc1CCl` displayed a melting point of 72 to 74 °C.
`COc1ccc(-c2cn(O)c(=S)[nH]2)cc1`: the melting point was determined as 160 °C.
For the compound `COc1ccc(S(=O)(=O)N(CC(N)=O)c2c(CCc3ccccc3)cccc2OC)cc1OC`, the melting point worked out at 244 °C.
As for `ONC=Nc1ccc(N2CCSCC2)c(Cl)c1`, the melting point fell in the range of 137 to 138 °C.
With `CCN(CC)Cc1ccnc(F)c1C=NO`, the melting point lay within 97 to 99 °C.
The compound `CN1CCN(c2ccc(Br)c3c2C[C@H](NC(=O)c2ccc(C(F)(F)F)cc2)CC3)CC1` registered a melting point of 229 to 230 °C.
The compound `Cc1c(C=CC#N)cccc1[N+](=O)[O-]` showed a melting point of 136 °C.
In turn, `O=S(CCCCCOc1ccc(C2=C(c3ccccc3)CCCc3cc(O)ccc32)cc1)CCCC(F)(F)C(F)(F)F` (configuration not stated) displayed a melting point of 138 to 140 °C.
`CC(Oc1ccc(-c2ccc(C#N)c(C#N)c2)cc1)C(O)CCc1cccnc1` (configuration not stated): the melting point was 136 to 137 °C.
`COC(=O)c1cc(C(=O)c2c(C)c(NC(=O)c3cccc(O)c3)c3ccccn23)ccc1N` came in with a melting point of 278 °C.
The figure for `O=[N+]([O-])c1cc2nc(O)c(O)nc2c2nonc12` is more than 300 °C; for `CC(=O)Nc1cccc2c1Oc1ccccc1C21CCN(C)CC1` it is 176 to 178 °C.
Compound `NC(=O)c1ccc(F)c2c1C=C([N+](=O)[O-])CO2` had a melting point of 225 to 227 °C.
The figure for `Cc1oc(-c2cccs2)nc1CCOc1ccc(N)cn1` is 120 to 122 °C; for `BrCc1cc2ccccc2cc1CBr` it is 147 to 148 °C.
Compound `CCCCC12CCC3=C(CCc4cc(OC)ccc43)C1CCC2=O` (configuration not stated) returned a melting point of 105 to 108 °C.
The figure for `CCNc1nc2c(C)sc(C(=O)OC)c2n1Cc1ccc(-c2ccccc2C#N)cc1` is 190 to 191 °C; for `CCCC(=O)c1cnc2c(OCCCN(C)Cc3ccccc3)cccc2c1Nc1ccccc1C` it is 100 to 102 °C.
Regarding `CNS(=O)(=O)Cc1ccc2[nH]cc(CC(=O)O)c2c1`, the melting point lay within 126 to 133 °C.
The compound `Cc1cccc(-c2ncc(N)c(=O)n2CC(=O)NC(Cc2ccccc2)C(=O)C(F)(F)C(=O)NCC(=O)O)c1` (configuration not stated) gave a melting point of 128 to 132 °C.
For the compound `O=C1Nc2ccccc2N(C(=O)CN2CCCCC2CN2CCOCC2)c2ccccc21` (configuration not stated), the melting point is 194 to 195 °C.
The figure for `Cc1cc2[nH]c(C)nc(N3CCOCC3)c-2n1` is 242 to 243 °C; for `Cc1nn(C)c(C(=O)O)c1-c1ccc(Cl)c(C(=O)NCC23CC4CC(CC(C4)C2)C3)c1` it is 207 °C; for `NC1CCc2cc(Cl)ccc2NC1=O` (configuration not stated) it is 170 to 171 °C.
The compound `O=C(NC(=O)c1c(F)cccc1F)Nc1cccc(S(=O)(=O)C(F)(F)C(F)Cl)c1` (configuration not stated) returned a melting point of 192 to 194 °C.
The compound `CC(C)(C)NC(=O)c1nn(-c2cc(F)c(F)cc2F)c2c1C1CCC2C1` (configuration not stated) registered a melting point of 127 to 130 °C.
`CC(C)(O)C(O)c1ccc(C(=O)CCC(=O)/C(=C/C2CCOCC2)c2ccc(S(=O)(=O)C3CC3)cc2)nc1` (configuration not stated) showed a melting point of 102 to 104 °C.
Take `CCOC(=O)C1=C(O)c2cc3ccccc3n2CC1`: the melting point lay in the range of 101 to 103 °C.
Then `CCOC(=O)C1(C(=O)OCC)NC(=O)CC1c1ccccc1` (configuration not stated), with 97 to 99 °C; and `CCN(CC)CC1CCN(c2c(F)cc3c(=O)c(C(=O)O)cn(CC)c3c2F)C1` (configuration not stated), with 210 to 211 °C.
The figure for `OC(Cn1cncn1)(c1ccc(F)cc1F)C(F)n1cncn1` (configuration not stated) is 117 to 123 °C; for `CS(=O)(=O)c1ccc(C=Cc2cc(=O)cc(-c3ccccc3)o2)cc1` it is 239 to 241 °C.
Then `FC(F)(F)c1cccc(CSc2nnc(-c3ccc4ncccc4c3)o2)c1`, with 158 to 159 °C.
With `CC(C)c1cc(-c2ccc(F)c3ccccc23)nc(NS(C)(=O)=O)n1`, the melting point was 276 to 277 °C.
Then `O=C(CCl)NCCCCOc1cc(CN2CCCCC2)ccn1`, with 59 to 63 °C; and `CC(C)N1C(=O)C(NC(=O)CCC2CCCCC2)N=C(N(C)C)c2ccccc21` (configuration not stated), with 209 to 210 °C; and `Nc1ccc(CCC(=O)N2CCCCC2)cc1[N+](=O)[O-]`, with 140 to 141 °C.
The figure for `CCn1nnnc1NCC(O)COc1cccc(CN2CCCCC2)c1` (configuration not stated) is 111 to 113 °C; for `CC1([N+](=O)[O-])C(c2ccco2)CC(=C(C#N)C#N)CC1c1ccco1` (configuration not stated) it is 192 °C.
The figure for `CCC1c2cc(F)ccc2-c2cc(-c3ccccc3)ccc2N1S(=O)(=O)c1ccc(O)cc1` (configuration not stated) is 207 °C.
As for `O=C(NC(CO)CO)c1ccccc1-c1ccc(C(F)(F)F)cc1`, the melting point lay within 141 to 143 °C.
Compound `CCCCN(CC(O)C(Cc1ccccc1)NC(=O)C(CC(N)=O)NC(=O)NCc1ccccc1)C(=O)NC(C)(C)C` (configuration not stated) displayed a melting point of 166 to 167 °C.
For the compound `CN1c2ccc(-c3ccccc3)cc2Sc2cc(-c3ccccc3)ccc21`, the melting point lay within 239 to 241 °C.
The figure for `Nc1ccc2ccc(Cl)cc2n1` is 175 °C; for `O=C(OC1CCC1)c1ccc(O)c(C(=O)O)c1` it is 200 °C.
`O=C(Cl)c1c(Cl)cc([N+](=O)[O-])cc1Cl` showed a melting point of 63 to 65 °C.
`CSc1ccc(-n2c(-c3ccncc3)nc(SC)c(C#N)c2=O)cc1` registered a melting point of 227 to 229 °C.
Then `C(=C(c1ccccc1)c1ccccc1)c1ccc2c(c1)Sc1cc(C=C(c3ccccc3)c3ccccc3)ccc1N2c1ccccc1`, with 232 to 237 °C; and `CCOC(=O)c1ccc(N=CN(C)c2ccc(C(=O)OCC)cc2)cc1`, with 89 to 91 °C; and `CN1CCN(c2cc3nc(C(C)(C)C)sc3cc2[N+](=O)[O-])CC1`, with 132 to 135 °C.
Take `Cc1cc(S(=O)(=O)N(C)CC(O)(CO)c2cccc(Cl)n2)ccc1Cl` (configuration not stated): the melting point was in the range of 131 to 132 °C.
With `CC1SC(=O)NN=C1c1ccc2c(c1)C1(CCCS1)C(=O)N2` (configuration not stated), the melting point came to 205 °C.
The compound `O=C(O)c1ccc(CNS(=O)(=O)c2ccc(F)cc2)cc1` registered a melting point of 231 to 234 °C.
`CNc1ccc([N+](=O)[O-])cc1N`: the melting point was 171 to 173 °C.
`Cc1sc(NS(=O)(=O)c2cccc(Cl)c2C)nc1CC(=O)N1CCOCC1` displayed a melting point of 194 to 195 °C.
The figure for `CCOc1cc(/C(=C\C#N)c2ccc(NC(=O)OC)c(OC)c2)ccc1OC` is 148 to 149 °C.
Turning to `CCCC(CO)n1cnc(C(N)=O)c1` (configuration not stated), the melting point turned out to be 160 °C.
Then `CCc1cc(OCc2ccc(-c3ccccc3-c3nnnn3-c3ccc([N+](=O)[O-])cc3)cc2)c2c(n1)CCCC2`, with 205 to 207 °C.
`CCSC(C)C(=O)N(CC)c1cn(-c2cccnc2)nc1Cl` (configuration not stated) displayed a melting point of 65 to 66 °C.
Then `O=C(O)CN1CCN2c3ccccc3Cc3ccccc3C2C1` (configuration not stated), with 162 to 163 °C; and `O=[N+]([O-])c1cnc(NCC(O)CO)cn1` (configuration not stated), with 185 to 187 °C.
Consider `CNC(=S)NNCC1CC2c3cccc4[nH]cc(c34)CC2N(C)C1` (configuration not stated), for which the melting point lay in the range of 220 to 221 °C.
As to `CCc1cccc(CC)c1C(=O)Nc1nnc(C(C)(CC)CC)s1`, the melting point fell in the range of 186 to 188 °C.
`Cn1ncnc1COc1nn2c(-c3ccccc3Cl)nncc2c1-c1ccccc1F` had a melting point of 155 to 157 °C.
The figure for `CC(=O)Oc1c(C)cc(N(C)C(=O)OC(C)(C)C)c(C)c1C` is 103 to 104 °C; for `CCOC(=O)C(=O)Nc1ccc(NC(=O)C(=O)OCC)cc1` it is 214 to 217 °C; for `CN1CC(CCCl)Oc2ccc([N+](=O)[O-])cc2C1=S` (configuration not stated) it is 153 to 155 °C.
Then `CCN(CC)C(=O)c1cc(-c2ccc(Cl)cc2)nc2ccc(Cl)cc12`, with 130 °C.
The figure for `CCCCc1ncc(C=C(Cc2cccs2)C(=O)O)n1Cc1cccc(C(=O)O)c1` is 243 to 244 °C.
